SMILES strings stand for the structures. In brackets after ≈: the same amount, converted by molar mass.

Assay [1] is described as follows: HL60 CC50 (uM) Cytotoxicity. Type of assay: functional. The conditions noted are these: HL-60.
In another assay the test system is Plasmodium berghei. As to the kind of experiment: Antimalarial activity: Liver Stage Plasmodium berghei sporozoite Luciferase assay: inhibition at 10 uM (%). The format is functional.
The subject of assay [2] is Plasmodium falciparum. As to the kind of experiment: Antimalarial activity: Gametocytes Plasmodium falciparum NF54 Gametocytes Stage V: inhibition at 10 uM (%). The format is functional.
Assay [3] deals with Plasmodium falciparum. As to the kind of experiment: Antimalarial activity: Asexual Blood Stage Plasmodium falciparum W2 IC50 (uM). Type of assay: functional, organism-based.
The test system of assay [4] is HepG2. Nature of the assay: Cytotoxicity data HepG2 CC20 (uM). Type of assay: functional.
The test system of assay [5] is HepG2. As to the kind of experiment: HepG2 inhibition at 10 uM (%) Cytotoxicity. To be noted: Homo sapiens. Type of assay: functional.
Assay [6] has as its system Plasmodium falciparum. As to the kind of experiment: Antimalarial activity: Asexual Blood Stage Plasmodium falciparum Dd2 IC50 (uM). Type of assay: functional, organism-based.
The subject of assay [7] is Plasmodium falciparum. As to the kind of experiment: Antimalarial activity: Asexual Blood Stage Plasmodium falciparum 3D7 IC50 (uM). The format is functional, organism-based.
In assay [8] the test system is Mycobacterium tuberculosis. As to the kind of experiment: AntiMycobacterium tuberculosis activity 1-week GAST/Fe MIC (uM). To be noted: 168 h. Type of assay: functional.
For assay [9], the system named is HepG2. Nature of the assay: HepG2 glucose CC50 (uM) Cytotoxicity. The format is functional.
The test system of assay [10] is Mycobacterium tuberculosis. Nature of the assay: (§1) AntiMycobacterium tuberculosis activity day 10 in 7H9/2.5mM butyrate/pH6/0.1mM nitrite MIC90 (uM). To be noted: 240 h. Type of assay: functional.
Assay [11] has as its system Mycobacterium tuberculosis. Nature of the assay: AntiMycobacterium tuberculosis activity 2-week 7H9/glucose/BSA/Tx MIC (uM). Type of assay: functional. To be noted: 336 h.
Assay [12] deals with HepG2. As to the kind of experiment: HepG2 galactose CC50 (uM) Cytotoxicity. Type of assay: functional.
Assay [13] has as its system Mycobacterium tuberculosis. As to the kind of experiment: AntiMycobacterium tuberculosis activity day 21 in 7H9/2.5mM butyrate/pH6/0.1mM nitrite MIC90 (uM). Type of assay: functional. To be noted: 504 h.
Assay [14] has as its system Mycobacterium tuberculosis. As to the kind of experiment: AntiMycobacterium tuberculosis activity 2-week 7H9/DPPC/cholesterol/BSA/Tx MIC (uM). Type of assay: functional. The conditions noted are these: 336 h.
The test system of assay [15] is Mycobacterium tuberculosis. As to the kind of experiment: AntiMycobacterium tuberculosis activity 2-week Alamar Blue 7H9/cholesterol/BSA/Tx MIC (uM). The format is functional. The conditions noted are these: 336 h. For orientation: The colour change of resazurin is a common sign of viable cells or microbes.
Assay [16] concerns Mycobacterium tuberculosis. Nature of the assay: AntiMycobacterium tuberculosis activity 1-week 7H9/cholesterol/BSA/Tx MIC (uM). Type of assay: functional. The conditions noted are these: 168 h.
Assay [17] relates to Mycobacterium tuberculosis. As to the kind of experiment: AntiMycobacterium tuberculosis activity 1-week 7H9/glucose/BSA/Tx MIC (uM). To be noted: 168 h. The format is functional.
Assay [18] deals with Mycobacterium tuberculosis. Nature of the assay: AntiMycobacterium tuberculosis activity 1-week 7H9/DPPC/cholesterol/BSA/Tx MIC (uM). Type of assay: functional. To be noted: 168 h.
Assay [19] deals with Mycobacterium tuberculosis. Nature of the assay: AntiMycobacterium tuberculosis activity day 21 MIC99 in 7H9/2.5mM butyrate/pH6/0.1mM nitrite MIC99 (uM). The format is functional. To be noted: 504 h.
The test system of assay [20] is Mycobacterium tuberculosis. The description is as §1. The format is functional. To be noted: 240 h. The source holds these as a separate data set.
Assay [21] relates to Mycobacterium tuberculosis. As to the kind of experiment: AntiMycobacterium tuberculosis activity 1-week 7H9/ADC/Tw MIC (uM). Type of assay: functional. To be noted: 168 h.
Assay [22] concerns Mycobacterium tuberculosis. As to the kind of experiment: AntiMycobacterium tuberculosis activity 2-week 7H9/ADC/Tw MIC (uM). The format is functional. The conditions noted are these: 336 h.
Assay [23] relates to Mycobacterium tuberculosis. As to the kind of experiment: AntiMycobacterium tuberculosis activity 2-week GAST/Fe MIC (uM). The conditions noted are these: 336 h. The format is functional.
Assay [24] concerns Mycobacterium tuberculosis. Nature of the assay: AntiMycobacterium tuberculosis activity 2-week Alamar Blue 7H9/ADC/Tw MIC (uM). The format is functional. The conditions noted are these: 336 h.

As to `O=C1COCc2ccc(Br)cc2N1Cc1ccc(C(F)(F)F)cc1`, the CC50 in assay [1] is > 50000 nM. Further, the Inhibition in the assay with Plasmodium berghei and in the assay with Plasmodium falciparum [2] was 2% throughout. The IC50 was found to be 2260 nM in the assay with Plasmodium falciparum [3], 3060 nM in the assay with Plasmodium falciparum [6] and 960 nM with Plasmodium falciparum [7]. In the assay with HepG2 [4], this compound registered a CC20 of 38400 nM. Also, the inhibition at 10 µM with HepG2 [5] amounted to 10%.
On to `CCOc1ccc(-c2nc(CNCCc3ccc(F)cc3)cs2)cc1`, for which the MIC in assay [8] was 19 µM (≈ 6.77 µg/mL); in [11] it was 19 µM (≈ 6.77 µg/mL); in [14] it was 12.5 µM (≈ 4.46 µg/mL); in [15], 12.5 µM (≈ 4.46 µg/mL); in [16], 9.4 µM (≈ 3.35 µg/mL); in [17] it was 19 µM (≈ 6.77 µg/mL). In addition, the MIC in assay [18] is 12.5 µM (≈ 4.46 µg/mL); in assay [19], 50 µM (≈ 17.8 µg/mL); in [21] it was 25 µM (≈ 8.91 µg/mL); in [22], 25 µM (≈ 8.91 µg/mL); in [23], 12.5 µM (≈ 4.46 µg/mL); in assay [24] it was 25 µM (≈ 8.91 µg/mL). Moreover, the CC50 in the assay on HepG2 [9] worked out at 35400 nM; in the assay with HepG2 [9] (Homo sapiens, HepG2), 33300 nM; with HepG2 [12] it was 24000 nM; with HepG2 [12] (Homo sapiens, HepG2), 21200 nM. Further, the MIC90 in assay [10] amounted to 25 µM (≈ 8.91 µg/mL); in assay [13], 25 µM (≈ 8.91 µg/mL); in assay [20] it was 50 µM (≈ 17.8 µg/mL).
`CC(=O)N1CCc2cc3nc(C)cc(C)c3cc21`: the MIC is 0.15 µM (≈ 0.036 µg/mL) in assay [8]; > 50 µM in assay [11]; 25 µM (≈ 6.01 µg/mL) in [14]; 2.3 µM (≈ 0.553 µg/mL) in assay [15]; 3.13 µM (≈ 0.752 µg/mL) in assay [16]; > 50 µM in [17]. For the same compound, the MIC in assay [18] was 2.3 µM (≈ 0.553 µg/mL); in assay [19], > 50 µM; in assay [21], > 50 µM; in assay [22] it was > 50 µM; in assay [23], 0.39 µM (≈ 0.0937 µg/mL); in assay [24], 4.7 µM (≈ 1.13 µg/mL). Also, the CC50 with HepG2 [9] (Homo sapiens, HepG2) was > 50000 nM; in the assay on HepG2 [12] (Homo sapiens, HepG2) it was > 50000 nM. The MIC90 was 6.25 µM (≈ 1.5 µg/mL) in [10], 12.5 µM (≈ 3 µg/mL) in assay [13] and > 50 µM in assay [20].
`Nc1ncc(-c2cn[nH]c2)cc1-c1nc2cc(Cl)cnc2[nH]1`: the CC50 in assay [1] is > 50000 nM. Besides, the Inhibition in the assay on Plasmodium berghei and with Plasmodium falciparum [2] was 0% in each case. This compound came in with a CC20 in the assay on HepG2 [4] of 2820 nM. This compound gave an inhibition at 10 µM in the assay with HepG2 [5] of 7%. In the assay on Plasmodium falciparum [7], this compound had an IC50 of 400 nM.
On to `CS(=O)(=O)c1cccc(-c2cnc3[nH]cc(-c4ccc(CCC(=O)O)cc4)c3c2)c1`, for which the CC50 in assay [1] was > 50000 nM. Besides, the Inhibition in the assay with Plasmodium berghei worked out at 47%; with Plasmodium falciparum [2], 38%. Besides, the IC50 in the assay on Plasmodium falciparum [3] came out at 910 nM; with Plasmodium falciparum [6], 680 nM; in the assay on Plasmodium falciparum [7], 500 nM. Besides, the CC20 in the assay on HepG2 [4] was >80000 nM. In the assay with HepG2 [5], at 10 µM the inhibition was 16%.
Consider `CCC(NC(=O)c1ccccc1NC(=O)c1ccc(C)cc1)C(=O)OC` (centres undefined), for which the CC50 in assay [1] was > 50000 nM. Moreover, the Inhibition with Plasmodium berghei is 0%; in the assay on Plasmodium falciparum [2], 29%. The same compound gave an inhibition at 10 µM with HepG2 [5] of 5%. Also, in the assay on Plasmodium falciparum [7], the IC50 amounted to 160 nM.
For `CC(C)(C)c1cc(C(=O)N2CCN(c3nccnc3C#N)CC2)n(Cc2ccccc2)n1`, the CC50 in [1] was > 50000 nM. Further, the Inhibition was 42% in the assay on Plasmodium berghei and 8% with Plasmodium falciparum [2]. For the same compound, the IC50 was determined as 1300 nM in the assay with Plasmodium falciparum [3], 1000 nM in the assay on Plasmodium falciparum [6] and 600 nM with Plasmodium falciparum [7]. For the same compound, the CC20 in the assay on HepG2 [4] was determined as 22900 nM. For the same compound, the inhibition at 10 µM in the assay with HepG2 [5] came to 0%.
Consider `COc1cccc2c(C)nc(N=C(N)N)nc12`, for which, in assay [1], the CC50 was > 50000 nM. Further, the Inhibition in the assay on Plasmodium berghei was 42%; in the assay on Plasmodium falciparum [2] it was 0%. The compound also returned a CC20 with HepG2 [4] of 8380 nM. The inhibition at 10 µM in the assay on HepG2 [5] worked out at 20%. Moreover, the results for the IC50 in the assay with Plasmodium falciparum [6] and in the assay on Plasmodium falciparum [7] were > 2000 nM and 1060 nM, respectively.
For `CC(=O)Nc1ccc(NC(=O)c2cc(-c3cc(Cl)ccc3O)n[nH]2)cc1`, in [1], the CC50 is > 50000 nM. In addition, the Inhibition with Plasmodium berghei came to 0%; with Plasmodium falciparum [2] it was 6%. Further, the IC50 came out at 510 nM in the assay with Plasmodium falciparum [3], 480 nM in the assay with Plasmodium falciparum [6] and 350 nM with Plasmodium falciparum [7]. Moreover, the CC20 in the assay on HepG2 [4] was >80000 nM. This compound also displayed an inhibition at 10 µM with HepG2 [5] of 7%.
For the compound `CCCS(=O)(=O)N1CCC(CO)(Cc2ccccc2C(F)(F)F)CC1`, the CC50 in [1] is > 50000 nM. Besides, the figures for the Inhibition in the assay on Plasmodium berghei and in the assay with Plasmodium falciparum [2] were 43% and 19%, respectively. The results for the half-inhibitory concentration (IC50) in the assay with Plasmodium falciparum [3], in the assay with Plasmodium falciparum [6] and with Plasmodium falciparum [7] were 1550 nM, 990 nM and 1090 nM, respectively. Further, the CC20 in the assay on HepG2 [4] is >80000 nM. In the assay on HepG2 [5], this compound yielded an inhibition at 10 µM of 0%.

As a reminder, the CC50 is the concentration at which the toxic effect on the cells reaches its halfway point. In general, Inhibition refers to how much of the control response was suppressed. Lower therefore signals a weak effect. By IC50 is commonly meant the concentration needed to halve the response being measured. Higher therefore signals lower potency. As a reminder, the inhibition is the relative decrease from the control value, in per cent. One may read the MIC as the lowest concentration that inhibits growth of the organism. Read a high MIC as a need for much substance. As a reminder, the MIC90 is an inhibitory concentration at the 90% level, which refers to growth in some studies and to a panel of isolates in others.
